Patent publication US8933089B2, “HIV inhibiting 5-amido substituted pyrimidines” (Janssen R & D Ireland, priority 2006, dated 2015)

Experiments:
HIV strain K103N = test: Cellular anti-HIV assay in MT4 LTR-EGFP cells, mutant K103N; assay type: cell-based, HIV-1; conditions: Human immunodeficiency virus 1, read-out: K103N pEC50 (converted)
Experimental: (§1) Because of the increasing emergence of drug resistant HIV strains, the present compounds were tested for their potency against clinically isolated HIV strains harbouring several mutations. These mutations are associated with resistance to reverse transcriptase inhibitors and result in viruses that show various degrees of phenotypic cross-resistance to the currently commercially available drugs such as for instance AZT and delavirdine.
(§2) The antiviral activity of the compound of the present invention has been evaluated in the presence of wild type HIV and HIV mutants bearing mutations at the reverse transcriptase gene. The activity of the compounds is evaluated using a cellular assay which was performed according to the following procedure.
(§3) The human T-cell line MT4 is engineered with Green Fluorescent Protein (GFP) and an HIV-specific promoter, HIV-1 long terminal repeat (LTR). This cell line is designated MT4 LTR-EGFP, and can be used for the in vitro evaluation of anti-HIV activity of investigational compounds. In HIV-1 infected cells, the Tat protein is produced which upregulates the LTR promotor and finally leads to stimulation of the GFP reporter production, allowing to measure ongoing HIV-infection fluorometrically. Analogously, MT4 cells are engineered with GFP and the constitutional cytomegalovirus (CMV) promotor. This cell line is designated MT4 CMV-EGFP, and can be used for the in vitro evaluation of cytotoxicity of investigational compounds. In this cell line, GFP levels are comparably to those of infected MT4 LTR-EGFP cells. Cytotoxic investigational compounds reduce GFP levels of mock-infected MT4 CMV-EGFP cells.
(§4) Effective concentration values such as 50% effective concentration (EC50) can be determined and are usually expressed in μM. An EC50 value is defined as the concentration of test compound that reduces the fluorescence of HIV-infected cells by 50%. The 50% cytotoxic concentration (CC50 in μM) is defined as the concentration of test compound that reduces fluorescence of the mock-infected cells by 50%. The ratio of CC50 to EC50 is defined as the selectivity index (SI) and is an indication of the selectivity of the anti-HIV activity of the inhibitor. The ultimate monitoring of HIV-1 infection and cytotoxicity is done using a scanning microscope. Image analysis allows very sensitive detection of viral infection. Measurements are done before cell necrosis, which usually takes place about five days after infection, in particular measurements are performed three days after infection.
(§5) The columns IIIB, L100I, etc. in the table list the pEC50 values against various strains IIIB, L100I, etc.

HIV strain L100I = test: Cellular anti-HIV assay in MT4 LTR-EGFP cells, mutant L100I; assay type: cell-based, HIV-1; conditions: Human immunodeficiency virus 1, read-out: L100I pEC50 (converted)
Experimental: as §1, §2, §3, §4, §5

HIV strain MDR = test: Cellular anti-HIV assay in MT4 LTR-EGFP cells, MDR strain; assay type: cell-based, HIV-1; conditions: Human immunodeficiency virus 1, read-out: MDR pEC50 (converted)
Experimental: as §1, §2, §3, §4, §5
MDR refers to a strain that contains mutations L100I, K103N, Y181C, E138G, V1791, L2214F, V278V/I and A327A/V in HIV reverse transcriptase.

HIV strain Y188L = test: Cellular anti-HIV assay in MT4 LTR-EGFP cells, mutant Y188L; assay type: cell-based, HIV-1; conditions: Human immunodeficiency virus 1, read-out: Y188L pEC50 (converted)
Experimental: as §1, §2, §3, §4, §5

HIV strain K103N + Y181C = test: Cellular anti-HIV assay in MT4 LTR-EGFP cells, mutant K103N + Y181C; assay type: cell-based, HIV-1; conditions: Human immunodeficiency virus 1, 72 h, read-out: K103N + Y181C pEC50 (converted)
Experimental: as §1, §2, §3, §4, §5

HIV strain L100I + K103N = test: Cellular anti-HIV assay in MT4 LTR-EGFP cells, mutant L100I + K103N; assay type: cell-based, HIV-1; conditions: Human immunodeficiency virus 1, 72 h, read-out: L100I + K103N pEC50 (converted)
Experimental: as §1, §2, §3, §4, §5

[1] = system: HIV strain IIIB (wild type); test: Cellular anti-HIV assay in MT4 LTR-EGFP cells, strain IIIB (wild type); selectivity index versus cytotoxicity in mock-infected MT4 CMV-EGFP cells; assay type: cell-based, HIV-1; conditions: for EC50: Human immunodeficiency virus 1, 72 h, wild type HIV strain IIIB, MT4 LTR-EGFP cells, fluorescence, three days after infection, read-out: IIIB pEC50 (converted); for IIIB pSi: selectivity index = ratio of CC50 (mock-infected MT4 CMV-EGFP cells) to EC50 (IIIB), given as p value
Experimental: as §2, §3, §4, §5
Strain IIIB is wild type HIV strain

HIV strain Y181C = test: Cellular anti-HIV assay in MT4 LTR-EGFP cells, mutant Y181C; assay type: cell-based, HIV-1; conditions: Human immunodeficiency virus 1, read-out: Y181C pEC50 (converted)
Experimental: as §1, §2, §3, §4, §5

Row | Compound | EC50 (HIV strain K103N) [µM] | EC50 (HIV strain L100I) [µM] | EC50 (HIV strain MDR) [µM] | EC50 (HIV strain Y188L) [µM] | melting point [°C] | EC50 (HIV strain K103N + Y181C) [µM] | EC50 (HIV strain L100I + K103N) [µM] | EC50 [1] [µM] | IIIB pSi [1] | EC50 (HIV strain Y181C) [µM]
1 | Cc1cc(/C=C/C#N)cc(C)c1Nc1nc(Nc2ccc(C#N)cc2)ncc1C(=O)NCCO [Compound 53] | 0.00631 | 0.00501 | 0.501 | 0.0316 | > 250 | 0.0316 | 0.0251 | 0.00316 | >3.90 | 0.02
2 | CCN(CCO)C(=O)c1cnc(Nc2ccc(C#N)cc2)nc1Nc1c(C)cc(/C=C/C#N)cc1C [Compound 55] | 0.00398 | 0.0158 | 2 | 0.0631 | > 222 | 0.1 | 0.0794 | 0.001 | 4.00 | 0.02
3 | COCCNC(=O)c1cnc(Nc2ccc(C#N)cc2)nc1Nc1c(C)cc(/C=C/C#N)cc1C [Compound 54] | 0.002 | 0.00398 | 1 | 0.01 | > 250 | 0.0126 | 0.0158 | 0.00251 | >4.00 | 0.01
4 | COc1ccccc1NC(=O)c1cnc(Nc2ccc(C#N)cc2)nc1Nc1c(C)cc(/C=C/C#N)cc1C |  |  |  |  | > 250 |  |  |  |  | 
5 | Cc1cc(/C=C/C#N)cc(C)c1Nc1nc(Nc2ccc(C#N)cc2)ncc1C(=O)N1CCOCC1 |  |  |  |  | > 250 |  |  |  |  | 
6 | Cc1cc(/C=C/C#N)cc(C)c1Nc1nc(Nc2ccc(C#N)cc2)ncc1C(=O)NCc1ccncc1 [Compound 15] | 0.00316 | 0.0126 | 0.2 | 0.02 |  | 0.02 | 0.0631 | 0.00316 | 3.70 | 0.0158
